Measurements published in patent publication US6235707A, “Anticoagulant peptidyl-arginine aldehyde derivatives” (Gyogyszerkutato Intezet Kft., priority 1996, dated 2001).
Where two headings read alike, the source gives them in different places. Square brackets hold non-standard residues; d marks the D form. Peptide text beside a SMILES is read from it. * marks the point of attachment. dCba = N[C@H](CC1CCC1)C(=O)O; Moc = COC(=O)*

Legend:
isolated human fXa = target: T1, isolated human fXa (Homo sapiens, UniProt P00742); assay: fXa inhibition in solution, amidolytic method on Bz-Ile-Glu-Gly-Arg-pNA chromogen substrate (Method M6); format: biochemical; conditions: for IC50: isolated human fXa, Bz-Ile-Glu-Gly-Arg-pNA
T1 construct: The isolated active factor (e.g. thrombin, fXa) and its chromogen or fluorogen peptide-amide substrate are reacted; purchased SIGMA
T1 sequence (P00742 235-488 limits assumed): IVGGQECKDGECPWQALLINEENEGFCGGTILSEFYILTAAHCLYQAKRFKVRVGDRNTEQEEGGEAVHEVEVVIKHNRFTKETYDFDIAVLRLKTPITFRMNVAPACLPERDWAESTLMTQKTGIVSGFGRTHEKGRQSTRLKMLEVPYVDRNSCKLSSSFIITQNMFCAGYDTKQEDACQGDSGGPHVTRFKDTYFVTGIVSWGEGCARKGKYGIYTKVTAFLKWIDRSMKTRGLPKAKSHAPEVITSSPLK
T1 sequence (P00742 41-179 partner limits assumed): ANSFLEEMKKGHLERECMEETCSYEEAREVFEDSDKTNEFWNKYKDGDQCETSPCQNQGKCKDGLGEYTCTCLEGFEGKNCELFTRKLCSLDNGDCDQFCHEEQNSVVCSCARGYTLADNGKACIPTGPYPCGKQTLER
Experimental: (§1) Anticoagulant activity (i.e. inhibition of the proteolytic reactions in the process) is measured by anticoagulant tests, e.g. in the thrombin time (TT), activated partial thromboplastin time (APTT) and prothrombin time (PT) tests [E. J. W. Bovie et al., Mayo Clinic Laboratory Manual of Haemostasis; W. B. Saunders Co., Philadelphia (1971)]. Plasma, inhibited in spontaneous coagulation, e.g. citrate-plasma, is made to coagulate and the required coagulation time is measured. Upon the action of anticoagulants the coagulation time is prolonged proportionally to the inhibition of the reaction(s) in the process. The anticoagulant effect can be characterised by the substance concentration required to prolong the coagulation time twofold compared to the control (IC50). The effect of anticoagulants on individual coagulant proteases is measured by the amidolytic method [R. Lottenberg et al., Methods in Enzymol. 80, 341 (1981); G. Cleason, Blood Coagulation and Fibrinolysis 5, 411 (1994)]. The isolated active factor (e.g. thrombin, fXa) and its chromogen or fluorogen peptide-amide substrate are reacted in the presence or absence of the inhibitor, resp. The enzyme inhibiting action is characterised by the inhibitory constant (IC50) measured during amidolysis.
(§2) The in vitro anticoagulant effects of the compounds of general formula (I) was measured by the prothrombin time (PT), activated partial thromboplastin time (APTT) and thrombin time (TT) tests [D. Bagdy et al., Thromb. Haemost. 67, 325 (1992)]. The fxa-inhibiting effect of the compounds was also determined using the Bz-Ile-Glu-Gly-Arg-pNA chromogen substrate (see method M6).
Determination of Factor Xa Inhibition in Solution on a 96-well Microtitre Plate
a) By means of phosphate buffer (0.1M sodium phosphate and 0.05M sodium chloride, pH=7.4) 1.3 E/ml solution is prepared from human factor Xa (SIGMA), and 0.1-1.0-10 and 100 μg/ml solutions from the peptide inhibitors. The Bz-Ile-Glu-Gly-Arg-pNA substrate is used in distilled water solution ([…]).
b) From the control and the peptide inhibitor solutions (3 parallel samples of each concentration) 30-30 μl aliquots are placed into the wells. 30 μl of factor Xa, 90 μl of buffer and 150 μl of substrate are added to the peptide solution and the extinction is determined after 10 min. at 405 nm. Thereafter the steps are the same as in M2/c.

citrate plasma [1] = assay: activated partial thromboplastin time (APTT) plasma clotting test; format: biochemical
Experimental: as §1
(§3) In the TT test coagulation is initiated by the thrombin added to the citrate plasma. In the system 22 pmol/ml of thrombin is functioning and its inhibition can be measured on the fibrinogen (one of the natural substrates of thrombin) in the presence of plasma components. In the APTT and PT tests the full coagulation process takes place. Depending on the activator fX is activated either by the extrinsic or the intrinsic pathway. The generated fXa activates prothrombin to thrombin which, in turn, triggers plasma coagulation. The coagulation time is prolonged if the enzymes or one of them is inhibited by the inhibitor. In the APTT and PT tests at most 40 pmol/ml Xa can be generated (this is the full amount of factor X present in both systems) while 150 pmol/ml (APTT) and 350 pmol/ml (PT) of thrombin are generated [B. Kaiser et al., Thromb. Res. 65, 157 (1992)].
as §2

citrate plasma [2] = assay: prothrombin time (PT) plasma clotting test; format: biochemical
Experimental: as §1, §3, §2

thrombin = thrombin (Homo sapiens, UniProt P00734); assay: thrombin time (TT) plasma clotting test; format: biochemical
Experimental: as §1, §3, §2

urokinase (UK) = urokinase (UK) (Homo sapiens, UniProt P00749); assay: fibrin-plate method, plasmin formation induced by urokinase; format: biochemical; conditions: for IC50: fibrin plate, hydrolysed area reduced to 50% of control; for B: relative efficiency, UK: related to the activity of C1 (1/IC50 = 1)
Description: (§4) The inhibitory effect of the new compounds of the invention on plasmin (PL) as well as on plasmin formation induced by tissue plasminogen activator (tPA) and urokinase (UK) was examined by the fibrin-plate method [D. Bagdy et al.: Thromb. Haemost. 67, 325 (1992)]. Compounds C1 and C5 served as controls. […] V. Jackson et al.: J. Cardiovasc. Pharmacol. 21, 587 (1993))]. In Table 4 the results obtained with the new compounds 1 and 2 as well as those with controls C1 and C5 are presented as an example.

[3] = target: T2, fibrin gel-bound thrombin (Homo sapiens, UniProt P00734); assay: inhibition of fibrin gel-bound thrombin (Methods M4, M5); format: biochemical; conditions: human fibrinogen clotted with human thrombin; Tos-Gly-Pro-Arg-pNA substrate
T2 construct: purchased SIGMA
Experimental: (§5) Plasma-clot was obtained by recalcificating platelet-rich human plasma, and fibrin gel by clotting human fibrinogen with human thrombin. For the activity measures of fXa and thrombin Z-D-Arg-Gly-Arg-pNA or Tos-Gly-Pro-Arg-pNA substrates were used in agreement with Methods M1-M3.
Preparation of Fibrin Clots
a) To each reaction vessel 200 μl of human fibrinogen (SIGMA), 25 μl of 25 NIH/E/ml human thrombin (SIGMA) and 40 μl of 100 mM CaCl2 solution is placed and the mixtures are allowed to stand for 1 hour at 20-22° C. The fibrin clots are washed with isotonic NaCl-solution (3×2 ml) under gentle stirring to remove traces of thrombin and sedimented for 5 min. The effectiveness of the washing can be checked by the method M1/c.
Determination of Inhibition of Fibrin-clot Bound Thrombin
a) 0.1-1.0-10 and 100 μg/ml solutions are made from the peptide inhibitors with Hepes/NaCl buffer (0.001 M Hepes and 0.1 M NaCl, pH=7.4).
b) Measurements are continued according to M3/b.

plasmin (PL) = plasmin (PL) (Homo sapiens, UniProt P00747); assay: fibrin-plate method, plasmin; format: biochemical; conditions: for IC50: fibrin plate, hydrolysed area reduced to 50% of control; for B: relative efficiency, PL: related to the activity of C1 (1/IC50 = 1)
Chain of plasmin (PL) (P00747 581-810 limits assumed, species assumed): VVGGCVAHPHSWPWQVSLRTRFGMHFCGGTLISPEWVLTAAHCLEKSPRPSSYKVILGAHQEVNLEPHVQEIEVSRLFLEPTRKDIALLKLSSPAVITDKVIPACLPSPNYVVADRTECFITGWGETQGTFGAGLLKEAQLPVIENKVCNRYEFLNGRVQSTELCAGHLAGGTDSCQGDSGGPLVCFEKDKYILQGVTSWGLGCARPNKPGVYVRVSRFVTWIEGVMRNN
Chain of plasmin (PL) (P00747 97-580 partner limits assumed, species assumed): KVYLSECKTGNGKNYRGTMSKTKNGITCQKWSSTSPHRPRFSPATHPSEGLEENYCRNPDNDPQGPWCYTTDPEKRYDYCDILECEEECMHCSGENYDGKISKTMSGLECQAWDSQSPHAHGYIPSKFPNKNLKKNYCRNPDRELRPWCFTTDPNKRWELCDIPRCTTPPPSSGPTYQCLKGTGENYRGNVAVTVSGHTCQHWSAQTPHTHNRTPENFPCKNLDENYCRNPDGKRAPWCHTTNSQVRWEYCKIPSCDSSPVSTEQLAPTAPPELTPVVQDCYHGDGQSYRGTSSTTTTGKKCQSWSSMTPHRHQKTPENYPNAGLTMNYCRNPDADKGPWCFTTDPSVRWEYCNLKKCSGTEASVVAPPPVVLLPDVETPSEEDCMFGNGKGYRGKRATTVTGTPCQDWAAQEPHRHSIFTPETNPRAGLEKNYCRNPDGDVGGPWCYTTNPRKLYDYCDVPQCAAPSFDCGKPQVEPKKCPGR
Description: as §4

[4] = target: tissue plasminogen activator (tPA) (Homo sapiens, UniProt P00750); assay: fibrin-plate method, plasmin formation induced by tPA; format: biochemical; conditions: for IC50: fibrin plate, hydrolysed area reduced to 50% of control; for B: relative efficiency, tPA: related to the activity of C1 (1/IC50 = 1)
Chain of tissue plasminogen activator (tPA) (P00750 36-562, species assumed): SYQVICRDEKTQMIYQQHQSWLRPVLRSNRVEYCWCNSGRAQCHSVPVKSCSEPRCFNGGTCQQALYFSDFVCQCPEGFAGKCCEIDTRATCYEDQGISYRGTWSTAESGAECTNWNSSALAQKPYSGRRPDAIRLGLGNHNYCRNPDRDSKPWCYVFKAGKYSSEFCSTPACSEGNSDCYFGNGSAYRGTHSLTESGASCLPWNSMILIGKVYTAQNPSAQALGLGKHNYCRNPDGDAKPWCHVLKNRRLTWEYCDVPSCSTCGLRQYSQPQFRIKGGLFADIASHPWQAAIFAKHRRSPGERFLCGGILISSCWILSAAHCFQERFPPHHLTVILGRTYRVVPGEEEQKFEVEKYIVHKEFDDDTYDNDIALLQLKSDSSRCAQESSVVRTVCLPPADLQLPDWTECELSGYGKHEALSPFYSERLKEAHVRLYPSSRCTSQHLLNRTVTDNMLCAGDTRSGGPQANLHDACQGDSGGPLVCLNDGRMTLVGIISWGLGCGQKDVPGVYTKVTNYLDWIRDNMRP
Description: as §4

clot-bound thrombin = target: T3, clot-bound thrombin (Homo sapiens, UniProt P00734); assay: inhibition of plasma clot-bound thrombin (Methods M1, M3); format: biochemical; conditions: clot from platelet-rich human plasma; Tos-Gly-Pro-Arg-pNA substrate
T3 construct: from tissue; host or cells: clot of recalcified human platelet-rich plasma
Experimental: as §5
Preparation of Clots from Human Plasma
a) Platelet-rich plasma is prepared by centrifuging a 9:1 mixture of human blood and 3.8% sodium citrate solution for 5 min. at 240×g.
b) 200 μl platelet-rich plasma and 80 μl 40 mM CaCl2 solution are allowed to stand at room temperature for 1 hour. The thus-formed clot is washed with 6×2 ml of 0.9% NaCl solution with gentle stirring to remove the residual enzymes (thrombin and factor Xa). The washing medium is assayed for thrombin-like activity as follows:
c) To 400 μl of washing medium 100 μl of 1 mM Tos-Gly-Pro-Arg-pNA substrate solution is added, the mixture is incubated for 30 min at 37° C., then the reaction is stopped with 100 μl of 50% acetic acid. From this mixture 150 μl aliquots are applied onto a 96-well microtitre plate and the extinction coefficients are measured at 405 nm (ELISA READER SLT Laborinstrument GmbH, Austria). In case of efficient washing the extinction coefficient is smaller than 5% of that of the control.
Determination of the Inhibition of Clot-bound Thrombin
a) Solutions are made from the peptide inhibitors according to Method M2/a.
b) After draining off the washing medium the clots (Method M1) are mixed with 400 μl of peptide solution (3 parallel samples with each concentration), then the samples are incubated for 5 min. at 37° C. together with a separate 400 μl buffer serving as control. Then 100 μl […] 1 mM Tos-Gly-Pro-Arg-pNA substrate solution is added and the incubation continued for further 30 min. at 37° C. The experiment is continued according to M2/c.

[5] = C. V. Jackson et al. 1993; cited from earlier work
[6] = Table 3, read-out: B: fXa inhibiting IC50
[7] = Table 3, twofold prolongation compared to control, read-out: A: anticoagulant IC50, APTT
[8] = Table 3, twofold prolongation compared to control, read-out: A: anticoagulant IC50, PT
[9] = Table 3, twofold prolongation compared to control, read-out: A: anticoagulant IC50, TT
[10] = Table 2, read-out: B: fXa inhibiting effect IC50
[11] = Table 2, concentration prolonging clotting time twofold, read-out: A: anticoagulation IC50, APTT
[12] = Table 2, concentration prolonging clotting time twofold, read-out: A: anticoagulation IC50, PT
[13] = Table 2, concentration prolonging clotting time twofold, read-out: A: anticoagulation IC50, TT

Row | IC50 (isolated human fXa; [6]) [nM] | IC50 (citrate plasma [1]; [7]) [nM] | IC50 (citrate plasma [2]; [8]) [nM] | IC50 (thrombin; [9]) [nM] | B: relative efficiency, UK (urokinase (UK)) | B: relative efficiency, PL (plasmin (PL)) | B: relative efficiency, tPA [4] | Structure (SMILES) | other results
1 | 27 | 240 | 1410 | 100 | 1.8 | 0.55 | 3.5 | CCOC(=O)N[C@H](CC1CCCC1)C(=O)N1CCC[C@H]1C(=O)N[C@H](C=O)CCCNC(=N)N [Example 4, Ethoxycarbonyl-3-cyclopentyl-D-alanyl-L-prolyl-L-arginine aldehyde] | IC50 (urokinase (UK)): 46000 nM; IC50 [3]: 670 nM; IC50 (plasmin (PL)): 98000 nM; IC50 [4]: 38000 nM; IC50 (clot-bound thrombin): 490 nM
2 | – | – | – | – | 27.3 | 4.5 | 22.0 | CC(C)(C)OC(=O)N[C@H](Cc1ccccc1)C(=O)N1CCC[C@H]1C(=O)N[C@H](C=O)CCCNC(=N)N [Example C5, BOC-D-Phe-Pro-Arg-H] | IC50 (isolated human fXa; [10]): 910 nM; fXa IC50, times lower than C1 (isolated human fXa; text b89): 10 times; IC50 (citrate plasma [1]; [11]): 760 nM; IC50 (citrate plasma [2]; [12]): 2270 nM; IC50 (thrombin; [13]): 200 nM; antifibrinolytic effect in vivo [5]: well detectable
3 | 68 | 500 | 1490 | 130 | – | – | – | CCOC(=O)NC(CC1CCC1)C(=O)N1CCC[C@H]1C(=O)N[C@H](C=O)CCCNC(=N)N (mixture of isomers) [Example C8, Ethoxycarbonyl-3-cyclobutyl-DL-alanyl-L-prolyl-L-arginine aldehyde] | –
4 | – | – | – | – | – | – | – | COC(=O)N[C@H](Cc1ccccc1)C(=O)N1CCC[C@H]1C(=O)N[C@H](C=O)CCCNC(=N)N [Example C7, Methoxycarbonyl-3-phenyl-D-alanyl-L-prolyl-L-arginine aldehyde] | IC50 (isolated human fXa; [10]): 130 nM; IC50 (citrate plasma [1]; [11]): 290 nM; IC50 (citrate plasma [2]; [12]): 1960 nM; IC50 (thrombin; [13]): 200 nM
5 | 388 | 250 | 1120 | 110 | 0.5 | 0.23 | 1.4 | COC(=O)N[C@H](CC1CCC1)C(=O)N1CCC[C@H]1C(=O)N[C@H](C=O)CCCNC(=N)N [Example 2, methoxycarbonyl-3-cyclobutyl-D-alanyl-L-prolyl-L-arginine aldehyde] (Moc-[dCba]-Pro-Arg-aldehyde) | IC50 (urokinase (UK)): 153000 nM; activity against UK, times lower than that of compound C5 (urokinase (UK); text b147, third of three enzymes): 39 times; IC50 [3]: 640 nM; IC50 (plasmin (PL)): 235000 nM; activity against PL, times lower than that of compound C5 (plasmin (PL); text b147, first of three enzymes): 3.2 times; IC50 [4]: 92000 nM; activity against tPA, times lower than that of compound C5 ([4]; text b147, second of three enzymes): 4.5 times; IC50 (clot-bound thrombin): 680 nM
6 | 43 | 480 | 1900 | 260 | – | – | – | CCOC(=O)NC(CC1CCCC1)C(=O)N1CCC[C@H]1C(=O)N[C@H](C=O)CCCNC(=N)N (mixture of isomers) [Example C9, Ethoxycarbonyl-3-cyclopentyl-DL-alanyl-L-prolyl-L-arginine aldehyde] | –
7 | 917 | 380 | 1910 | 130 | – | – | – | CCOC(=O)N[C@H](Cc1ccccc1)C(=O)N1CCC[C@H]1C(=O)N[C@H](C=O)CCCNC(=N)N [Example C6, Ethoxycarbonyl-3-phenyl-D-alanyl-L-prolyl-L-arginine aldehyde] | –

Row | Structure (SMILES) | IC50 (isolated human fXa; [6]) [nM] | IC50 (citrate plasma [1]; [7]) [nM] | IC50 (citrate plasma [2]; [8]) [nM] | IC50 (thrombin; [9]) [nM] | B: relative efficiency, UK (urokinase (UK)) | B: relative efficiency, PL (plasmin (PL)) | B: relative efficiency, tPA [4] | other results
8 | CCOC(=O)NC(C(=O)N1CCC[C@H]1C(=O)N[C@H](C=O)CCCNC(=N)N)C1CCC1 (mixture of isomers) [Example C10, Ethoxycarbonyl-DL-cyclobutyl-glycyl-L-prolyl-L-arginine aldehyde] | 82 | 770 | 6150 | 880 | – | – | – | –
